Measurements taken from US5763477A, “Taxane derivatives from 14-β-hydroxy-10 deacetylbaccatin III” (Dr. Reddy's Research Foundation, priority 1994, dated 1998).
Read-outs that look alike come from different tables or passages of the source.

Tests used:
Assay type in all cases: cell-based
SW 620 = test: In vitro anti-cancer activity, colon cancer, cell line SW 620; conditions: Homo sapiens
From the text: (§1) In particular, these compounds are related to taxol, the recently FDA approved anticancer drug, and its various analogues having an additional hydroxyl group at C-14 position of the taxane skeleton. […] Selectivity and sensitivity were particularly good at 0.01 to 1 μm concentrations at G150 level (concentrations of the agent in the assay that produced 50 0 growth inhibition).
(§2) IN VITRO ANTI-CANCER ACTIVITY DATA OF 7,10-DIMETHYLACETONIDO 14-HYDROXY TAXOL (Compound 23) ON LEUKEMIA, OVARIAN AND BREAST CANCER CELL LINES IN COMPARISON TO TAXOL
(§3) All the values are given in μm concentrations:
(§4) The notations GI50, TGI refer to the concentrations of the agent in the assay that produced 50% growth inhibition, total growth inhibition respectively.

MCF7 = test: In vitro anti-cancer activity, breast cancer, cell line MCF7; conditions: Homo sapiens
From the text: as §1, §2, §3, §4

[1] = test system: leukemia, colon cancer and ovarian cancer cell lines; test: Selectivity and sensitivity (National Cancer Institute protocols); conditions: towards leukemia
From the text: as §1

HT-29 = test: In vitro anti-cancer activity, colon cancer, cell line HT-29; conditions: Homo sapiens
[2] = test system: three ovarian cancer cell lines; test: Activity on three ovarian cancer cell lines (National Cancer Institute protocols)
From the text: as §1

IGR-OV1 = test: In vitro anti-cancer activity, ovarian cancer, cell line IGR-OV1; conditions: Homo sapiens, IGROV-1
From the text: as §1, §2, §3, §4

MDA-MB 231 = test: In vitro anti-cancer activity, breast cancer, cell line MDA-MB 231; conditions: Homo sapiens
From the text: as §1, §2, §3, §4

OVCAR3 = test: In vitro anti-cancer activity, ovarian cancer, cell line OVCAR3; conditions: Homo sapiens, OVCAR-3
From the text: as §1, §2, §3, §4

KM12 = test: In vitro anti-cancer activity, colon cancer, cell line KM12; conditions: Homo sapiens
BT 549 = test: In vitro anti-cancer activity, breast cancer, cell line BT 549; conditions: Homo sapiens
From the text: as §1, §2, §3, §4

MDA-N = test: In vitro anti-cancer activity, breast cancer, cell line MDA-N; conditions: Homo sapiens
From the text: as §1, §2, §3, §4

MDA-MB 435 = test: In vitro anti-cancer activity, breast cancer, cell line MDA-MB 435; conditions: Homo sapiens
From the text: as §1, §2, §3, §4

H5578T = test: In vitro anti-cancer activity, breast cancer, cell line H5578T
From the text: as §1, §2, §3, §4

HCT 15 = test: In vitro anti-cancer activity, colon cancer, cell line HCT 15; conditions: Homo sapiens
OVCAR5 = test: In vitro anti-cancer activity, ovarian cancer, cell line OVCAR5; conditions: Homo sapiens, OVCAR-5
From the text: as §1, §2, §3, §4

T47D = test: In vitro anti-cancer activity, breast cancer, cell line T47D; conditions: Homo sapiens
From the text: as §1, §2, §3, §4

OVCAR4 = test: In vitro anti-cancer activity, ovarian cancer, cell line OVCAR4; conditions: Homo sapiens, OVCAR-4
From the text: as §1, §2, §3, §4

K-562 = test: In vitro anti-cancer activity, leukemia, cell line K-562; conditions: Homo sapiens, K562
From the text: as §1, §2, §3, §4

Molt-4 = test: In vitro anti-cancer activity, leukemia, cell line Molt-4; conditions: Homo sapiens
From the text: as §1, §2, §3, §4

HL60 = test: In vitro anti-cancer activity, leukemia, cell line HL60; conditions: Homo sapiens, HL-60
From the text: as §1, §2, §3, §4

HCT 116 = test: In vitro anti-cancer activity, colon cancer, cell line HCT 116; conditions: Homo sapiens
SR = test: In vitro anti-cancer activity, leukemia, cell line SR; conditions: Homo sapiens
From the text: as §1, §2, §3, §4

[3] = test system: three leukemia cell lines; test: Activity on three leukemia cell lines (National Cancer Institute protocols)
From the text: as §1

RPMI-8226 = test: In vitro anti-cancer activity, leukemia, cell line RPMI-8226; conditions: Homo sapiens
From the text: as §1, §2, §3, §4

[4] = breast cancer, read-out: TGI (total growth inhibition)
[5] = read-out: TGI (total growth inhibition)

For CC(=O)O[C@@]12CO[C@@H]1C[C@@H]1OC(C)(C)O[C@H]3C(=O)[C@@]1(C)[C@@H]2[C@H](OC(=O)c1ccccc1)[C@]1(O)[C@@H](O)[C@H](OC(=O)[C@H](O)[C@@H](NC(=O)c2ccccc2)c2ccccc2)C(C)=C3C1(C)C [Compound 23, 7,10-dimethyl acetonido-14-hydroxy taxol], the GI50 (SW 620; colon cancer, SW 620, read-out: GI50) was 131 nM, the GI50 (MCF7; breast cancer, MCF7, read-out: GI50) was 70 nM and the IC (total growth inhibition) (MCF7; breast cancer, MCF7, read-out: TGI (total growth inhibition)) was over 30 µM. For the same compound, the selectivity and sensitivity [1] was “good selectivity and sensitivity”, the GI50 (HT-29; colon cancer, read-out: GI50) was 79 nM and the IC50 [2] was under 1000 nM. The GI50 (IGR-OV1; ovarian cancer, IGR-OV1, read-out: GI50) was 66 nM, the GI50 (MDA-MB 231; breast cancer, MDA-MB 231, read-out: GI50) was 500 nM and the IC (total growth inhibition) (MDA-MB 231; breast cancer, MDA-MB 231, read-out: TGI (total growth inhibition)) was over 30 µM. For the same compound, the GI50 (OVCAR3; ovarian cancer, OVCAR3, read-out: GI50) was 131 nM, the GI50 (KM12; colon cancer, read-out: GI50) was 77 nM and the GI50 (BT 549; breast cancer, BT 549, read-out: GI50) was 443 nM. The IC (total growth inhibition) (BT 549; breast cancer, BT 549, read-out: TGI (total growth inhibition)) was 11.2 µM, the GI50 (MDA-N; breast cancer, read-out: GI50) was 33 nM and the IC (total growth inhibition) (MDA-N; [4]) was 0.12 µM. The GI50 (MDA-MB 435; breast cancer, MDA-MB 435, read-out: GI50) was 30 nM, the IC (total growth inhibition) (MDA-MB 435; breast cancer, MDA-MB 435, read-out: TGI (total growth inhibition)) was 0.12 µM and the GI50 (H5578T; breast cancer, H5578T, read-out: GI50) was 137 nM. It also gave an IC (total growth inhibition) (H5578T; breast cancer, H5578T, read-out: TGI (total growth inhibition)) of 0.89 µM, a GI50 (HCT 15; colon cancer, HCT 15, read-out: GI50) of 2140 nM and a GI50 (OVCAR5; ovarian cancer, OVCAR5, read-out: GI50) of 770 nM. It also gave a GI50 (T47D; breast cancer, read-out: GI50) of 158 nM, an IC (total growth inhibition) (T47D; [4]) of 17.7 µM and a GI50 (OVCAR4; ovarian cancer, OVCAR4, read-out: GI50) of 1860 nM. It also gave a GI50 (K-562; leukemia, K-562, read-out: GI50) of 247 nM, a GI50 (Molt-4; leukemia, Molt-4, read-out: GI50) of 267 nM and a GI50 (HL60; leukemia, HL60, read-out: GI50) of 44 nM. It also gave a GI50 (HCT 116; colon cancer, HCT 116, read-out: GI50) of 228 nM, a GI50 (SR; leukemia, read-out: GI50) of 84 nM and an IC50 [3] of under 100 nM. For the same compound, the GI50 (RPMI-8226; leukemia, read-out: GI50) was 57 nM.
CC(=O)O[C@H]1C(=O)[C@@]2(C)[C@H]([C@H](OC(=O)c3ccccc3)[C@]3(O)C[C@H](OC(=O)[C@H](O)[C@@H](NC(=O)c4ccccc4)c4ccccc4)C(C)=C1C3(C)C)[C@]1(OC(C)=O)CO[C@@H]1C[C@@H]2O [Taxol, reference compound] showed a GI50 (SW 620; SW-620) of 20 nM, a GI50 (MCF7; MCF7) of 9 nM and an IC (total growth inhibition) (MCF7; MCF7, read-out: TGI (total growth inhibition)) of 1 µM. The GI50 (HT-29) was 8 nM, the GI50 (IGR-OV1) was 28 nM and the GI50 (MDA-MB 231; MDA-MB-231) was 100 nM. The IC (total growth inhibition) (MDA-MB 231; MDA-MB-231, read-out: TGI (total growth inhibition)) was 0.67 µM, the GI50 (OVCAR3) was 22 nM and the GI50 (KM12) was 16 nM. It also gave a GI50 (BT 549; BT-549) of 60 nM, an IC (total growth inhibition) (BT 549; BT-549, read-out: TGI (total growth inhibition)) of 0.7 µM and a GI50 (MDA-N) of 4 nM. For the same compound, the TGI (total growth inhibition concentration) (MDA-N; [5]) was 15 nM, the GI50 (MDA-MB 435; MDA-MB-435) was 6 nM and the IC (total growth inhibition) (MDA-MB 435; MDA-MB-435, read-out: TGI (total growth inhibition)) was 0.025 µM. For the same compound, the GI50 (H5578T) was 12 nM, the TGI (total growth inhibition) (H5578T; [5]) was 150 nM and the GI50 (HCT 15; HCT-15) was 570 nM. For the same compound, the GI50 (OVCAR5) was 75 nM, the GI50 (T47D) was 109 nM and the TGI (total growth inhibition) (T47D; [5]) was 1000 nM. For the same compound, the GI50 (OVCAR4) was 380 nM, the GI50 (K-562) was 15 nM and the GI50 (Molt-4; MOLT-4) was 53 nM. For the same compound, the GI50 (HL60) was 10 nM, the GI50 (HCT 116; HCT-116) was 19 nM and the GI50 (SR) was 33 nM. For the same compound, the GI50 (RPMI-8226) was 6 nM.
